SMILES strings stand for the structures.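 Interpolation was linear, between the two tested concentrations surrounding the appropriate level; five concentrations were tested over 48 hours in 96-well plates. GI50 is the concentration that inhibits growth by half. The concentration for full growth arrest is given as TGI.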

Some test systems named below: TK-10 renal; HOP-92 NSCLC; SK-MEL-2 melanoma; LOX IMVI melanoma; MCF7 breast; HT29 colon; SK-MEL-5 melanoma; A498 renal; IGROV1 ovarian; EKVX NSCLC.
Holding throughout (assay): inhibition of tumour cell growth, NCI panel, 48 h

As to `Nc1ccc(Nc2cc(=O)[nH]c(=O)[nH]2)cc1Cl`, the TGI with TK-10 renal, with HOP-92 NSCLC, with SK-MEL-2 melanoma, in the experiment with LOX IMVI melanoma, with MCF7 breast and in the experiment on HT29 colon was greater than 100 µM throughout. Also, the TGI in the experiment with SK-MEL-5 melanoma and with A498 renal was greater than 100 µM throughout.
Turning to `Cc1cnc2c(c1C)C(=O)c1ccccc1C2=O`, the TGI in the experiment with TK-10 renal, with HOP-92 NSCLC, in the experiment with SK-MEL-2 melanoma, in the experiment with MCF7 breast, in the experiment with IGROV1 ovarian and with HT29 colon was greater than 100 µM throughout. For the same compound, the TGI with SK-MEL-5 melanoma is 28.9 µM; in the experiment with A498 renal it was greater than 100 µM; in the experiment with EKVX NSCLC, greater than 100 µM.
Consider `CC(C)(CCC(C)(C)N1OC1c1ccccc1)N1OC1c1ccccc1` (centres undefined), for which the TGI with TK-10 renal, in the experiment with HOP-92 NSCLC, in the experiment with SK-MEL-2 melanoma, in the experiment on LOX IMVI melanoma, with MCF7 breast and in the experiment on HT29 colon was greater than 100 µM each time. Also, the TGI is 37.8 µM in the experiment on SK-MEL-5 melanoma and greater than 100 µM with A498 renal.
Consider `O=C1CCCC/C1=C\c1ccc(Cl)c(Cl)c1`, for which the TGI in the experiment on TK-10 renal was 34.4 µM; with LOX IMVI melanoma, 34.7 µM; in the experiment with IGROV1 ovarian, 61.7 µM; in the experiment on HT29 colon it was 55.1 µM; in the experiment with SK-MEL-5 melanoma it was 32.5 µM; in the experiment with A498 renal, greater than 100 µM. The TGI with EKVX NSCLC was greater than 100 µM.
With `CCCCCCCCCCCC[N+](CCCCCCCCCCCC)=C1SCCS1`, the TGI with TK-10 renal stood at 28.8 µM; in the experiment with HOP-92 NSCLC, 23.1 µM; in the experiment with SK-MEL-2 melanoma it was 23.2 µM; in the experiment with LOX IMVI melanoma, 4.52 µM; in the experiment with IGROV1 ovarian it was 23.4 µM; in the experiment on HT29 colon, 12.8 µM. The figures for the TGI in the experiment on SK-MEL-5 melanoma, with A498 renal and in the experiment with EKVX NSCLC were 18.5 µM, 29.4 µM and 26 µM, respectively.
Regarding `COc1cc(O)c2c(=O)c(OC)c(-c3ccc(OC)c(OC)c3)oc2c1`, the TGI with TK-10 renal, in the experiment on LOX IMVI melanoma, in the experiment with MCF7 breast, in the experiment on IGROV1 ovarian, in the experiment on HT29 colon and in the experiment with SK-MEL-5 melanoma was greater than 100 µM in each case. Further, the TGI in the experiment on A498 renal and in the experiment on EKVX NSCLC was greater than 100 µM each time. The GI50 in the experiment with LOX IMVI melanoma was greater than 100 µM; in the experiment on MCF7 breast, 45.8 µM; with IGROV1 ovarian, greater than 100 µM; in the experiment with HT29 colon, greater than 100 µM; in the experiment with SK-MEL-5 melanoma, 82 µM; in the experiment with EKVX NSCLC, greater than 100 µM.
As to `C=C(C)[C@@H]1CC[C@]2(C(=O)OC)CC[C@]3(C)[C@H](CC[C@@H]4[C@@]5(C)CC[C@H](O)C(C)(C)[C@@H]5CC[C@]43C)[C@@H]12`, the TGI in the experiment on HOP-92 NSCLC was 41.3 µM; with LOX IMVI melanoma it was 34.6 µM; in the experiment with MCF7 breast it was 41.6 µM; with IGROV1 ovarian, 42.2 µM; in the experiment on HT29 colon, 60 µM; in the experiment on SK-MEL-5 melanoma, 41.3 µM. Moreover, the TGI in the experiment on A498 renal came out at 36.7 µM; in the experiment with EKVX NSCLC, 45.1 µM.
With `O=C1N[C@@H]2C(=C[C@H](O)[C@@H](O)[C@H]2O)c2cc3c(c(O)c21)OCO3`, the TGI is 0.272 µM in the experiment with HOP-92 NSCLC; 0.0499 µM with SK-MEL-2 melanoma; 0.065 µM in the experiment on LOX IMVI melanoma; 0.151 µM in the experiment on IGROV1 ovarian; 0.172 µM in the experiment with HT29 colon; 0.0774 µM in the experiment on SK-MEL-5 melanoma. For the same compound, the TGI with A498 renal was found to be 0.106 µM; in the experiment with EKVX NSCLC, 0.0743 µM.
For the compound `O=C(c1ccco1)N(C(=O)N1CCN(c2ccccc2)CC1)S(=O)(=O)c1ccccc1`, the TGI was greater than 100 µM in the experiment with TK-10 renal; 73.6 µM in the experiment with HOP-92 NSCLC; 37.2 µM in the experiment on SK-MEL-2 melanoma; 84 µM with MCF7 breast; greater than 100 µM in the experiment with HT29 colon; 68.3 µM with SK-MEL-5 melanoma. The results for the TGI with A498 renal and in the experiment on EKVX NSCLC were greater than 100 µM and 60.2 µM, respectively.
As to `C[N+](C)(C)c1ncnc2c1ncn2C1CCCO1` (centres undefined), the TGI in the experiment on TK-10 renal, with HOP-92 NSCLC, in the experiment with SK-MEL-2 melanoma, in the experiment with MCF7 breast, with IGROV1 ovarian and in the experiment with HT29 colon was greater than 100 µM each time. For the same compound, the TGI with SK-MEL-5 melanoma, with A498 renal and in the experiment on EKVX NSCLC was greater than 100 µM in each case.
Regarding `O=C1NC2CCCCCC2C12CCCCC2` (centres undefined), the TGI in the experiment on TK-10 renal, in the experiment on LOX IMVI melanoma, with IGROV1 ovarian, in the experiment on HT29 colon, with A498 renal and in the experiment with EKVX NSCLC was greater than 100 µM in each case.
For `N#C/C(C(=S)NCc1ccccc1)=C(/N)N1CCCC1`, the TGI in the experiment with TK-10 renal, in the experiment on HOP-92 NSCLC, in the experiment with SK-MEL-2 melanoma, with LOX IMVI melanoma, in the experiment on IGROV1 ovarian and in the experiment on HT29 colon was greater than 100 µM each time. For the same compound, the TGI in the experiment on SK-MEL-5 melanoma, in the experiment with A498 renal and in the experiment with EKVX NSCLC was greater than 100 µM in each case.
On to `NC(Cc1ccc(S(=O)(=O)O)cc1)C(=O)NC(Cc1ccc(S(=O)(=O)O)cc1)C(=O)NC(Cc1ccc(S(=O)(=O)O)cc1)C(=O)NC(Cc1ccc(S(=O)(=O)O)cc1)C(=O)O` (centres undefined), for which the TGI in the experiment with TK-10 renal, in the experiment with SK-MEL-2 melanoma, with LOX IMVI melanoma, in the experiment on MCF7 breast, in the experiment with IGROV1 ovarian and in the experiment on HT29 colon was greater than 100 µM in each case. Further, the TGI in the experiment on SK-MEL-5 melanoma, in the experiment on A498 renal and in the experiment on EKVX NSCLC was greater than 100 µM each time.
As to `O=C1Cc2c([nH]c3ccc(C(=O)O)cc23)-c2ccccc2N1`, the TGI with TK-10 renal, in the experiment on HOP-92 NSCLC, in the experiment with SK-MEL-2 melanoma, in the experiment with LOX IMVI melanoma, in the experiment on MCF7 breast and with IGROV1 ovarian was greater than 100 µM in each case. The TGI with HT29 colon and in the experiment on A498 renal was greater than 100 µM each time.
Regarding `COc1cccc(/N=N/C(=NNC(=O)c2ccc(C)cc2)c2ccc(N(C)C)cc2)c1`, the TGI in the experiment with TK-10 renal, in the experiment on HOP-92 NSCLC, in the experiment on SK-MEL-2 melanoma, with LOX IMVI melanoma, in the experiment with MCF7 breast and with IGROV1 ovarian was greater than 100 µM throughout. Further, the TGI with HT29 colon, with SK-MEL-5 melanoma and in the experiment on EKVX NSCLC was greater than 100 µM each time.

Values taken from PubChem BioAssay (NCI).
